Reference: patent publication US12018021B2 (UCB Biopharma SRL, priority 2018, dated 2024)

Molecular target: IgE-Tb / sFcεRIα-Y131A-AF488 (Homo sapiens, UniProt P01854, N146Q/N252Q)
Assay: IgE-Tb / sFcεRIα-Y131A-AF488 FRET assay (protocol for examples 234 to 501)
Assay type: binding
Details: examples 234 to 501: compound with IgE-Tb 30 minutes before sFcεRIα-Y131A-AF488, incubated 18 hours at room temperature; read-out: Y131A FRET IC50 range
Procedure, shortened: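 Read-out is the 520/490 nm emission ratio (337 nm excitation) after 18 h at room temperature, background subtracted, fitted four-parameter for IC50. Final reagents: 5 nM IgE-Tb, preincubated 30 min with compound (top typically 10 μM, 2% DMSO, 3-fold 10-point), plus 25 nM sFcεRIα-Y131A-AF488.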

Chain of IgE-Tb / sFcεRIα-Y131A-AF488 (P01854 whole entry N146Q/N252Q): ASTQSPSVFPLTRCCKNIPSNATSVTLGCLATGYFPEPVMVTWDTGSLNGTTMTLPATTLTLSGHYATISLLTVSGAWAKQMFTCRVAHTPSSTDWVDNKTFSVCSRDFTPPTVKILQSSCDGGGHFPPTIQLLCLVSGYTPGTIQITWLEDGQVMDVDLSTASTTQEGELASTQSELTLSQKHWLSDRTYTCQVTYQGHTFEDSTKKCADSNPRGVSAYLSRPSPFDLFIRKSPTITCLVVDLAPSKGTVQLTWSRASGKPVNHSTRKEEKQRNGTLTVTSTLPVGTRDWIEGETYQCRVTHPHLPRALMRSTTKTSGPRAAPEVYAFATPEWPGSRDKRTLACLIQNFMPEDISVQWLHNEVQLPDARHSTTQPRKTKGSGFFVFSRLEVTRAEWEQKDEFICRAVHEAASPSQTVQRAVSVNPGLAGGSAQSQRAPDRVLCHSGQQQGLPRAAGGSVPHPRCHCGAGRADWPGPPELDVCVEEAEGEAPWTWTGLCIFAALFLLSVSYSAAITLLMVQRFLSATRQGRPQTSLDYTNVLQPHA

SMILES	IC50
Cn1nc(C(F)F)cc1Nc1nncn1[C@H]1CCc2sc(NC(=O)[C@H]3C[C@H]3F)c(C(=O)NCC3CC3)c2C1 (single isomer, unassigned) [Example 363]	< 1000 nM
Cn1nc(OC(F)F)cc1Nc1nncn1[C@H]1CCc2sc(NC(=O)C3CC3)c(C(=O)NC[C@H]3C[C@H]3F)c2C1 [Example 461, (5S)-2-(cyclopropanecarbonylamino)-5-[3-[[5-(difluoromethoxy)-2-methylpyrazol-3-yl]amino]-1,2,4-triazol-4-yl]-N-[[(1R,2R)-2-fluorocyclopropyl]methyl]-4,5,6,7-tetrahydro-1-benzothiophene-3-carboxamide]	< 1000 nM
Cn1nc(C(F)F)cc1Nc1nncn1[C@H]1CCc2sc(NC(=O)[C@H]3C[C@H](F)C3)c(C(=O)NC[C@H]3C[C@H](F)C3)c2C1 (single isomer, unassigned) [Example 474]	< 1000 nM
C[C@H]1C[C@@H]1C(=O)Nc1sc2c(c1C(=O)NC[C@H]1C[C@@H]1F)C[C@@H](n1cnnc1Nc1cc(C(F)F)nn1C)CC2 [Example 436, (5S)-5-[3-[[5-(difluoromethyl)-2-methylpyrazol-3-yl]amino]-1,2,4-triazol-4-yl]-N-[[(1R,2S)-2-fluorocyclopropyl]methyl]-2-[[(1S,2S)-2-methylcyclopropanecarbonyl]amino]-4,5,6,7-tetrahydro-1-benzothiophene-3-carboxamide]	< 1000 nM
Cn1nc(OC(F)F)cc1Nc1nncn1[C@H]1CCc2sc(NC(=O)C3CC3)c(C(=O)NC[C@@H]3CC3(F)F)c2C1 (single isomer, unassigned) [Example 460]	< 1000 nM
Cn1nc(C(F)(F)F)cc1Nc1nncn1[C@H]1CCc2sc(NC(=O)[C@H]3C[C@H]3F)c(C(=O)NC[C@H]3C[C@H](F)C3)c2C1 (mixture of isomers) [Example 400, (5S)—N-[trans-(3-fluorocyclobutyl)methyl]-2-[[(1R,2R)-2-fluorocyclopropanecarbonyl]amino]-5-[3-[[2-methyl-5-(trifluoromethyl)pyrazol-3-yl]amino]-1,2,4-triazol-4-yl]-4,5,6,7-tetrahydro-1-benzothiophene-3-carboxamide]	< 1000 nM
COCCOC(=O)c1ncn([C@H]2CCc3sc(NC(=O)C4CC4)c(C(=O)NCC4CC4)c3C2)c1N [Example 247, 2-methoxyethyl 5-amino-1-[(5S)-2-(cyclopropanecarbonylamino)-3-(cyclopropylmethylcarbamoyl)-4,5,6,7-tetrahydro-1-benzothiophen-5-yl]imidazole-4-carboxylate]	< 1000 nM
COc1ccc2c(c1)Nc1c(ncn1[C@H]1CCc3sc(NC(=O)C4CC4)c(C(=O)NCC4CC4)c3C1)C(=O)N2C [Example 258, (5S)-2-(cyclopropanecarbonylamino)-N-(cyclopropylmethyl)-5-(8-methoxy-5-methyl-4-oxo-10H-imidazo[4,5-c][1,5]benzodiazepin-1-yl)-4,5,6,7-tetrahydrobenzothiophene-3-carboxamide]	< 1000 nM
O=C(NCC1CC1)c1c(NC(=O)C2CC2)sc2c1C[C@@H](n1cnnc1N[C@H]1CCN(c3cnccn3)C1)CC2 [Example 241, (5S)-2-(cyclopropanecarbonylamino)-N-(cyclopropylmethyl)-5-[3-[[(3S)-1-pyrazin-2-ylpyrrolidin-3-yl]amino]-1,2,4-triazol-4-yl]-4,5,6,7-tetrahydrobenzothiophene-3-carboxamide]	< 1000 nM
Nc1c(C(=O)OCCN2CCOCC2)ncn1[C@H]1CCc2sc(NC(=O)C3CC3)c(C(=O)NCC3CC3)c2C1 [Example 248, 2-morpholin-4-ylethyl 5-amino-1-[(5S)-2-(cyclopropanecarbonylamino)-3-(cyclopropylmethylcarbamoyl)-4,5,6,7-tetrahydro-1-benzothiophen-5-yl]imidazole-4-carboxylate]	< 1000 nM
Cn1nc(OC(F)F)cc1Nc1nncn1[C@H]1CCc2sc(NC(=O)C3CC3)c(C(=O)NCC3CC3(F)F)c2C1 (mixture of isomers) [Example 458, (5S)-2-(cyclopropanecarbonylamino)-N-[(2,2-difluorocyclopropyl)methyl]-5-[3-[[5-(difluoromethoxy)-2-methylpyrazol-3-yl]amino]-1,2,4-triazol-4-yl]-4,5,6,7-tetrahydro-1-benzothiophene-3-carboxamide]	< 1000 nM
COc1ccc2c(c1)Nc1c(ncn1[C@H]1CCc3sc(NC(=O)C4CC4)c(C(=O)NCC4CC4)c3C1)C(=O)N2 [Example 257, (5S)-2-(cyclopropanecarbonylamino)-N-(cyclopropylmethyl)-5-(8-methoxy-4-oxo-5,10-dihydroimidazo[4,5-c][1,5]benzodiazepin-1-yl)-4,5,6,7-tetrahydrobenzothiophene-3-carboxamide]	< 1000 nM
C[S+]([O-])c1cccc(Nc2nncn2[C@H]2CCc3sc(NC(=O)C4CC4)c(C(=O)NCC4CC4)c3C2)c1 (stereo partly drawn) [Example 251, (5S)-2-(cyclopropanecarbonylamino)-N-(cyclopropylmethyl)-5-[3-(3-methylsulfinylanilino)-1,2,4-triazol-4-yl]-4,5,6,7-tetrahydrobenzothiophene-3-carboxamide]	< 1000 nM
Cn1nncc1Nc1nncn1[C@H]1CCc2sc(NC(=O)C3CC3)c(C(=O)NCC3CC3)c2C1 [Example 434, (5S)-2-(cyclopropanecarbonylamino)-N-(cyclopropylmethyl)-5-[3-[(3-methyltriazol-4-yl)amino]-1,2,4-triazol-4-yl]-4,5,6,7-tetrahydrobenzothiophene-3-carboxamide]	< 1000 nM
Cn1nc(OC(F)(F)F)cc1Nc1nncn1[C@H]1CCc2sc(NC(=O)[C@H]3C[C@H]3F)c(C(=O)NCC3CC3)c2C1 [Example 292, (5S)—N-(cyclopropylmethyl)-2-[[(1R,2R)-2-fluorocyclopropanecarbonyl]amino]-5-[3-[[2-methyl-5-(trifluoromethoxy)pyrazol-3-yl]amino]-1,2,4-triazol-4-yl]-4,5,6,7-tetrahydrobenzothiophene-3-carboxamide]	< 1000 nM
Cn1nc(OC(F)F)cc1Nc1nncn1[C@H]1CCc2sc(NC(=O)C3CC3)c(C(=O)NC3CC34CC4)c2C1 (mixture of isomers) [Example 452, (5S)-2-(cyclopropanecarbonylamino)-5-[3-[[5-(difluoromethoxy)-2-methylpyrazol-3-yl]amino]-1,2,4-triazol-4-yl]-N-spiro[2.2]pentan-2-yl-4,5,6,7-tetrahydro-1-benzothiophene-3-carboxamide]	< 1000 nM
Cn1nc(C(F)F)cc1Nc1nncn1[C@H]1CCc2sc(NC(=O)[C@H]3CC3(F)F)c(C(=O)NC[C@H]3C[C@H]3F)c2C1 (relative stereo) [Example 498, (5S)-2-[[(1R*)-2,2-difluorocyclopropanecarbonyl]amino]-5-[3-[[5-(difluoromethyl)-2-methyl-pyrazol-3-yl]amino]-1,2,4-triazol-4-yl]-N-[[(1R,2R)-2-fluorocyclopropyl]methyl]-4,5,6,7-tetrahydrobenzothiophene-3-carboxamide (* or S)]	< 1000 nM
Cn1nc(C(F)F)cc1Nc1nncn1[C@H]1CCc2sc(NC(=O)[C@H]3CC34CC4)c(C(=O)N[C@H]3C[C@H](F)C3)c2C1 [Example 405, (5S)-5-[3-[[5-(Difluoromethyl)-2-methylpyrazol-3-yl]amino]-1,2,4-triazol-4-yl]-N-(trans-3-fluorocyclobutyl)-2-[[(2S)-spiro[2.2]pentane-2-carbonyl]amino]-4,5,6,7-tetrahydro-1-benzothiophene-3-carboxamide]	< 1000 nM
Cn1nc(C(F)F)cc1Nc1nncn1[C@H]1CCc2sc(NC(=O)[C@H]3C[C@H](F)C3)c(C(=O)NCC3CC3)c2C1 [Example 354, (5S)—N-(cyclopropylmethyl)-5-[3-[[5-(difluoromethyl)-2-methylpyrazol-3-yl]amino]-1,2,4-triazol-4-yl]-2-[trans-(3-fluorocyclobutanecarbonyl)amino]-4,5,6,7-tetrahydro-1-benzothiophene-3-carboxamide]	< 1000 nM
Cn1nc(C(F)F)cc1Nc1nncn1[C@H]1CCc2sc(NC(=O)[C@H]3CC34CC4)c(C(=O)NC[C@H]3CC3(F)F)c2C1 (single isomer, unassigned) [Example 410]	< 1000 nM
Cc1c(Nc2nncn2[C@H]2CCc3sc(NC(=O)C4CC4)c(C(=O)NCC4CC4)c3C2)cccc1S(C)(=O)=O [Example 264, (5S)-2-(cyclopropanecarbonylamino)-N-(cyclopropylmethyl)-5-[3-(2-methyl-3-methylsulfonyl-anilino)-1,2,4-triazol-4-yl]-4,5,6,7-tetrahydrobenzothiophene-3-carboxamide]	< 1000 nM
Nc1c(C(=O)N2CC[C@@H](O)C2)ncn1[C@H]1CCc2sc(NC(=O)C3CC3)c(C(=O)NCC3CC3)c2C1 [Example 260, (5S)-5-[5-amino-4-[(3R)-3-hydroxypyrrolidine-1-carbonyl]imidazol-1-yl]-2-(cyclopropanecarbonylamino)-N-(cyclopropylmethyl)-4,5,6,7-tetrahydrobenzothiophene-3-carboxamide]	< 1000 nM
Cc1c(Nc2nncn2[C@H]2CCc3sc(NC(=O)C4CC4)c(C(=O)NCC4CC4)c3C2)cccc1[S@](C)(=N)=O (single isomer, unassigned) [Example 237]	< 1000 nM
O=C1NCc2c(Nc3nncn3[C@H]3CCc4sc(NC(=O)C5CC5)c(C(=O)NCC5CC5)c4C3)cccc21 [Example 244, (5S)-2-cyclopropaneamido-N-(cyclopropylmethyl)-5-{3-[(1-oxo-2,3-dihydro-1H-isoindol-4-yl)amino]-4H-1,2,4-triazol-4-yl}-4,5,6,7-tetrahydro-1-benzothiophene-3-carboxamide]	< 1000 nM
Cn1nc(OC(F)F)cc1Nc1nncn1[C@H]1CCc2sc(NC(=O)[C@H]3C[C@@H]3F)c(C(=O)NC[C@@H]3CC3(F)F)c2C1 (single isomer, unassigned) [Example 375]	< 1000 nM
